The source made the active and inactive calls. The calls are words filed in the database; no cut-off is given here.
Experiments:
[1] = Displacement of [3H]idazoxan from imidazoline I2 receptor in New Zealand rabbit renal cortex homogenate after 60 mins […]; parameters: species or system Oryctolagus cuniculus
[2] = target: T1, Alpha-2A adrenergic receptor (Homo sapiens, UniProt P08913); experiment: Displacement of [3H]RX821001 from human alpha2A adrenoceptor expressed in CHO cells after 60 mins […]; format: cell-based
T1 sequence (P08913 whole entry): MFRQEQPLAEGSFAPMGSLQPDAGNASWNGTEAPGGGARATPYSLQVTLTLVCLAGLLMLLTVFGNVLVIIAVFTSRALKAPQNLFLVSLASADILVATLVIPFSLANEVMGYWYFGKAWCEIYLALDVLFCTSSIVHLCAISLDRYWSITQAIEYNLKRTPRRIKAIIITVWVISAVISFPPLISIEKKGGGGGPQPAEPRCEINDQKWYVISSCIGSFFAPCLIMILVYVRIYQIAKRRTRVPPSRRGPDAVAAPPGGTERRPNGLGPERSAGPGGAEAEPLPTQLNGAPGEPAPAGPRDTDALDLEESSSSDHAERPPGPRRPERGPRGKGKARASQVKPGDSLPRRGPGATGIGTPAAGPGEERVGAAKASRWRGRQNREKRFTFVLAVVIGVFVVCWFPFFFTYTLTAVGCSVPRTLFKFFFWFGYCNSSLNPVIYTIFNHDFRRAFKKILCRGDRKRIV

[3] = target: T2, Alpha-2B adrenergic receptor (Homo sapiens, UniProt P18089); experiment: Displacement of [3H]RX821001 from human alpha2B adrenoceptor expressed in CHO cells after 60 mins by gamma counter; format: cell-based
T2 sequence (P18089 whole entry): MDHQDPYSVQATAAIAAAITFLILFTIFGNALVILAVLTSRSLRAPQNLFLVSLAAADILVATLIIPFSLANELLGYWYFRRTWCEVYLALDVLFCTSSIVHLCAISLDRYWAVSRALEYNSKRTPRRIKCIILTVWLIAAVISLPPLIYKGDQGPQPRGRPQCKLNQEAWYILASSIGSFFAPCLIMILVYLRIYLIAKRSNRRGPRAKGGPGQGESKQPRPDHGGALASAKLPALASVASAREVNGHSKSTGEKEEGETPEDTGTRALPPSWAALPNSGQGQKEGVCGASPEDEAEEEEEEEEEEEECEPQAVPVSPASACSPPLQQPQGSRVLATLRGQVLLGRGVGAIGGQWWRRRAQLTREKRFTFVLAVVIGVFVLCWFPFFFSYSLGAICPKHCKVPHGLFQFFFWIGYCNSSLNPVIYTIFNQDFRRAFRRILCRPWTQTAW

[4] = target: T3, Alpha-2C adrenergic receptor (Homo sapiens, UniProt P18825); experiment: Displacement of [3H]RX821001 from human alpha2C adrenoceptor expressed in CHO cells after 60 mins […]; format: cell-based
T3 sequence (P18825 whole entry): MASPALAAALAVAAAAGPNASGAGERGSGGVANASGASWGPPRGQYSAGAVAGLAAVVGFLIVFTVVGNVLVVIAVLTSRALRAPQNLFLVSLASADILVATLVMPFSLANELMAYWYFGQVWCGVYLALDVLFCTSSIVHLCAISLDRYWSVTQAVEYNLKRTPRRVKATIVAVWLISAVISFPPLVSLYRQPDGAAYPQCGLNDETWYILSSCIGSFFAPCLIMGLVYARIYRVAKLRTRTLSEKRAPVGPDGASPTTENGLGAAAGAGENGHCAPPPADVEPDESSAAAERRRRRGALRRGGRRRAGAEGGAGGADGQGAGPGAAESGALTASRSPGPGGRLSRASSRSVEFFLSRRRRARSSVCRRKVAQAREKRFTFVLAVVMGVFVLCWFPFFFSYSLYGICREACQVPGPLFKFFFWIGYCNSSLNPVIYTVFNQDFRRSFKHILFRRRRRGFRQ

[5] = target: T4, Alpha-2A adrenergic receptor (Homo sapiens) (UniProt P08913); experiment: Selectivity ratio of compound to rilmenidine for human alpha2A adrenoceptor expressed in CHO cells after 60 mins […]; format: cell-based
T4 sequence (whole entry): T1 sequence (P08913 whole entry)

[6] = target: T5, Alpha-2B adrenergic receptor (Homo sapiens) (UniProt P18089); experiment: Selectivity ratio of compound to rilmenidine for human alpha2B adrenoceptor expressed in CHO cells after 60 mins […]; format: cell-based
T5 sequence (whole entry): T2 sequence (P18089 whole entry)

[7] = target: T6, Alpha-2C adrenergic receptor (Homo sapiens) (UniProt P18825); experiment: Selectivity ratio of compound to rilmenidine for human alpha2C adrenoceptor expressed in CHO cells after 60 mins […]; format: cell-based
T6 sequence (whole entry): T3 sequence (P18825 whole entry)

Rattus norvegicus [8] = experiment: Hypotensive activity in spontaneous hypertensive rat assessed as decrease in mean blood pressure at 10 mg/kg, iv measured continuously during 30 mins; format: functional, organism-based; parameters: dose 10 mg/kg
Rattus norvegicus [9] = experiment: Toxicity in spontaneous hypertensive rat assessed as vasoconstrictive activity at 1 mg/kg, iv; format: organism-based; parameters: dose 1 mg/kg, route intravenous; conditions: in vivo
Nischarin = Nischarin (Rattus norvegicus, UniProt Q4G017); experiment: Displacement of [125I]paraiodoclonidine from imidazoline I1 receptor in rat PC12 cells after 30 mins by gamma counter
Rattus norvegicus [10] = experiment: Hypotensive activity in spontaneous hypertensive rat assessed as decrease in mean blood pressure at 1 mg/kg, iv measured after 5 mins relative to control; format: functional; parameters: scale not given: the % may be the effect or the level left
PC-12 [11] = experiment: Selectivity ratio of pKi for human alpha2A adrenoceptor to pKi for imidazoline I1 receptor in rat PC12 cell; format: cell-based
PC-12 [12] = experiment: Selectivity ratio of pKi for human alpha2B adrenoceptor to pKi for imidazoline I1 receptor in rat PC12 cell; format: cell-based
PC-12 [13] = experiment: Selectivity ratio of pKi for human alpha2C adrenoceptor to pKi for imidazoline I1 receptor in rat PC12 cell; format: cell-based
PC-12 [14] = experiment: Selectivity ratio of pKi for imidazoline I2 receptor in New Zealand rabbit renal cortex to pKi for imidazoline I1 receptor in rat PC12 cell; format: cell-based

Chain of Nischarin (Q4G017 whole entry): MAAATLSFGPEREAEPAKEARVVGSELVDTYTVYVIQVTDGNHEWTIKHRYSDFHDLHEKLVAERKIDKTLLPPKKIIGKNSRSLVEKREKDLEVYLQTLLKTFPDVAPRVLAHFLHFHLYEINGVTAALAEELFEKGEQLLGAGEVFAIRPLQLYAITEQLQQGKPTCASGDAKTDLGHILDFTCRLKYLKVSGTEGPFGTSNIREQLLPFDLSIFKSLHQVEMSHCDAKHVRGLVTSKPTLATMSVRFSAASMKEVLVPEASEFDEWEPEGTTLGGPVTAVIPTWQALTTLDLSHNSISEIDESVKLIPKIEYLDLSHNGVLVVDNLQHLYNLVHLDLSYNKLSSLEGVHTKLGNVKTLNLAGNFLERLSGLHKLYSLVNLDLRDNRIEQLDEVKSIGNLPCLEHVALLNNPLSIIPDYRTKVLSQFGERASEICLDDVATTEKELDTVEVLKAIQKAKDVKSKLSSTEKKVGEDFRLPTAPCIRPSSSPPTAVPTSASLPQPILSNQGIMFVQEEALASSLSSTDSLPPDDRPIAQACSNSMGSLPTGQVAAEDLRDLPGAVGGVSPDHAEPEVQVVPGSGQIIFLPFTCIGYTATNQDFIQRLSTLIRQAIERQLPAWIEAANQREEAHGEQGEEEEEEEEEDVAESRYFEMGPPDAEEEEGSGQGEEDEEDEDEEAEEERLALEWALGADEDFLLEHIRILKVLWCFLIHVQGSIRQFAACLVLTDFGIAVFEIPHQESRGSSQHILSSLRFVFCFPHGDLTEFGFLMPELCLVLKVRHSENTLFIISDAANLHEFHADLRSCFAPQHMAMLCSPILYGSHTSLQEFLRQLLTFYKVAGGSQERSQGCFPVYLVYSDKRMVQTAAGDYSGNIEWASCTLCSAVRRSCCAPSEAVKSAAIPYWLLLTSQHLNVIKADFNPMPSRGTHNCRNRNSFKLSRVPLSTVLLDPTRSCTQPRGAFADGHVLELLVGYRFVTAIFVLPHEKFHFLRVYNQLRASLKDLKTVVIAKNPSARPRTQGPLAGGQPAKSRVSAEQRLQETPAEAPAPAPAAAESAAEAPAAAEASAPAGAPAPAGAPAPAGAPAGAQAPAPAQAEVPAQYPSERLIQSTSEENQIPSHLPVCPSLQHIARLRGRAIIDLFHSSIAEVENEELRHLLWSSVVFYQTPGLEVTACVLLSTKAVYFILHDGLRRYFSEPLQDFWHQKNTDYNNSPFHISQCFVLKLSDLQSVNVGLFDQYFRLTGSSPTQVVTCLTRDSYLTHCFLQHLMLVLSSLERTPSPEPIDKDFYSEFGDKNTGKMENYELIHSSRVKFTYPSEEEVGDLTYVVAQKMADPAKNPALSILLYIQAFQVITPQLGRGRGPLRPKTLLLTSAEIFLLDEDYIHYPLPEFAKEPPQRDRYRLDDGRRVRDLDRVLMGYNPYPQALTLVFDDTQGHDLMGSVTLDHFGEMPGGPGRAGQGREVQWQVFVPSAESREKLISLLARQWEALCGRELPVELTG

| pKi [1] | Ki [2] | Ki [3] | Ki [4] | Ratio [5] | Ratio [6] | Ratio [7] | Ki (Nischarin) | SMILES | Activity (Rattus norvegicus [8]) | Activity (Rattus norvegicus [9]) | Activity (Rattus norvegicus [10]) | Ratio pKi (PC-12 [11]) | Ratio pKi (PC-12 [12]) | Ratio pKi (PC-12 [13]) | Ratio pKi (PC-12 [14]) |
| --- | --- | --- | --- | --- | --- | --- | --- | --- | --- | --- | --- | --- | --- | --- | --- |
| < 5 | 4900 nM | 2820 nM | > 10000 nM | 135 | 66 | > 794 | 363 nM | CC1COC(NC(C2CC2)C2CC2)=N1 (centres undefined) | inactive | Non-toxic | – | – | – | – | – |
| 6.1 | 3020 nM | 933 nM | 5010 nM | – | – | – | 77.6 nM | Clc1ccccc1NC1=NCCC1 | – | – | – | – | – | – | – |
| < 5 | 36.3 nM | 42.7 nM | 12.6 nM | – | – | – | – | C1COC(NC(C2CC2)C2CC2)=N1 [RILMENIDINE] | – | – | – | – | – | – | – |
| < 5 | – | – | – | – | – | – | – | CC1CCC(Nc2ccc(I)cc2Cl)=N1 (centres undefined) | – | – | – | 11700 | 19100 | > 45700 | > 45700 |
| < 5 | – | – | – | – | – | – | 282 nM | Clc1cccc(Cl)c1NC1=NCCN1 [CLONIDINE] | – | – | – | – | – | – | – |
| – | 2570 nM | 4170 nM | > 10000 nM | – | – | – | 0.219 nM | CC1CCC(=Nc2ccc(I)cc2Cl)N1 (centres undefined) | – | – | – | – | – | – | – |
| < 5 | > 10000 nM | > 10000 nM | > 10000 nM | – | – | – | 132 nM | CC1CCC(Nc2ccccc2Cl)=N1 (centres undefined) | inactive | Non-toxic | – | – | – | – | – |

| SMILES | pKi [1] | Ki [2] | Ki [3] | Ki [4] | Ratio [5] | Ratio [6] | Ratio [7] | Ki (Nischarin) | Activity (Rattus norvegicus [8]) | Activity (Rattus norvegicus [9]) | Activity (Rattus norvegicus [10]) | Ratio pKi (PC-12 [11]) | Ratio pKi (PC-12 [12]) | Ratio pKi (PC-12 [13]) | Ratio pKi (PC-12 [14]) |
| --- | --- | --- | --- | --- | --- | --- | --- | --- | --- | --- | --- | --- | --- | --- | --- |
| CC1CNC(Nc2c(Cl)cccc2Cl)=N1 (centres undefined) | < 5 | 1950 nM | 1320 nM | 5750 nM | – | – | – | 0.933 nM | – | Non-toxic | 45% | – | – | – | – |

Reference: ChEMBL document CHEMBL2057159, “Methylation of imidazoline related compounds leads to loss of α₂-adrenoceptor affinity. Synthesis and biological evaluation of selective I₁ imidazoline receptor ligands” (Bioorg Med Chem, 2012)
